US20240059712A1, “BIFUNCTIONAL COMPOUNDS AND PHARMACEUTICAL USES THEREOF” (priority 2022, published 2024)

Biological target: T1, KRAS^G12D protein (Homo sapiens, UniProt P01116, G12D)
T1 construct: host or cells: Aspc-1 (AsPC-1) cells
Assay: Protein degradation study (western blot) in Aspc-1 cells
Format: cell-based
Settings: for inhibition at 0.005 µM / inhibition at 0.05 µM / inhibition at 0.1 µM / inhibition at 0.001 µM / inhibition at 1 µM: ASPC1, 24 h, 24 hours; for inhibition at 0.005 µM: Aspc-1 cells treated with 0.005 μM compound; for inhibition at 0.005 µM / inhibition at 0.05 µM / inhibition at 0.001 µM: read-out: Rate of degradation; for inhibition at 0.05 µM: Aspc-1 cells treated with 50 nM compound; for inhibition at 0.1 µM: Aspc-1 cells treated with 0.1 μM compound; for inhibition at 0.1 µM / inhibition at 1 µM: read-out: Rate of protein degradation; for inhibition at 0.001 µM: Aspc-1 cells treated with 1 nM compound; for DC50: Aspc-1 cells, half-maximum degradation concentration, read-out: DC50 of compounds induced Ras G12D protein degradation; for inhibition at 1 µM: Aspc-1 cells treated with 1 μM compound
Description: Aspc-1 (Cobioer, CBP60546) cells in exponential growth phase were inoculated on a 6-well cell culture plate (Corning, 3516) at density of 1E6/well; and cells in the plate were cultured in 37° C. incubator containing 5%-carbon dioxide. The next day, testing compounds were dissolved in DMSO (Sigma, RNBF5902) for the preparation of a 10-mM concentration stock solution. The stock solution was diluted with complete medium (RPMI-1640 supplemented with 10% fetal bovine serum, 1% penicillin-streptomycin), yielding working solutions of various concentrations. The plate, after the addition of compounds, was placed in a 5% carbon dioxide incubator, and incubated at 37° C. for 24 hours (final DMSO concentration was 0.1%). The plate was then removed from the incubator, and the cells were washed twice with precooled PBS (Gibco, 14190250), followed by addition of 80-μL RIPA lysis buffer (containing protease inhibitor (Invitrogen™, AM2696)) to each well. The adherent cells were scraped off with a cell scraper, and the cell lysate was transferred to a 1.5-mL centrifuge tube followed with a 30-minute incubation on ice. The lysate was then clarified with centrifugation at 14000 rpm for 10 min at 4° C. The supernatant was transferred into a new 1.5-mL centrifuge tube, and protein concentration was measured with BCA protein detection kit (Thermo Fisher, 23225). G12D protein level was assessed by western blot.
A mixture of cell lysate (40 μL) and loading buffer (10 μL, 5×SDS (Beyotime, P0015L)) was denatured in a water-bath at 95° C. for 10 min. The denatured protein sample, at 30 μL/well, was loaded into corresponding well of 4-20% Bis-Tris gel (Kingsley, M00656). Protein samples were initially electrophoresed at 80 V for 30 minutes, followed by 120 V for 40 minutes, until the bromophenol blue strip ran to an appropriate position. After electrophoresis, iBlot2 (Life Technologies, IB21001) was used to transfer the separated samples onto PVDF film. The PVDF membrane was washed with double-distilled water and then blocked in TBST (Thermo Scientific, 28360) buffer containing 5% non-fat milk, for 2 hours. Blocked membrane was rinsed with tris-buffered saline tween-20 (Thermo Scientific, 28360, TBST) three times, 10 minutes each. Membrane was then incubated with 1:1000 diluted KRAS primary antibody (CST, cat #14429S) overnight at 4° C. Membrane was rinsed in a way described previously followed by 1 hour incubation of secondary antibody at room temperature. After washing the film for three times with TBST, ECL color developing solution was applied, and image was captured with Biorad Chemi Doc gel imager. The band gray value was quantified (Image Lab), and protein degradation level was calculated according to the following formula:
Level of RAS protein expression=(RAS-compound/GAPDH)/(RAS-DMSO/GAPDH)
Level of degradation (%)=(1−Rate of RAS protein expression)×100
Symbols of −, +, ++, +++ indicate that the degradation level of Ras protein induced by testing compounds are […], 11 to 30%, 31 to 60% and greater than 60%, respectively.
Half-maximum degradation concentrations (DC50s) of testing compounds were calculated using GraphPad Prism and their values were shown in Table 6. Symbols of […] represent DC50s equal or less than 10 nM, 11-50 nM, 51-100 nM, and 101-200 nM, respectively.

T1 sequence (P01116 1-188 isoform P01116-2 G12D): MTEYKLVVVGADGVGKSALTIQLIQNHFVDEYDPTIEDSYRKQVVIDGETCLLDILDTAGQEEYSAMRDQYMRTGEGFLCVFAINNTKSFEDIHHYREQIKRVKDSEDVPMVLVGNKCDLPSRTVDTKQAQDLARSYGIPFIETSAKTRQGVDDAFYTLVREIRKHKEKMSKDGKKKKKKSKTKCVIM

## C#Cc1c(F)ccc2cc(O)cc(-c3ncc4c(N5CC6CCC(C5)N6)nc(OCC5(CN6CC7(CC(CN8CCC(c9ccc%10c(C%11CCC(=O)NC%11=O)nn(C)c%10c9)CC8)C7)C6)CC5)nc4c3F)c12 (stereo not drawn) [Compound 25a]
  inhibition at 0.005 µM: 31 to 60%
  inhibition at 0.05 µM: 31 to 60%

## C#Cc1c(F)ccc2cc(O)cc(-c3ncc4c(N5CC6CCC(C5)N6)nc(N5CC(N6CCN(C(=O)CN7CCC(c8ccc9c(C%10CCC(=O)NC%10=O)nn(C)c9c8)CC7)CC6)C5)nc4c3F)c12 (stereo not drawn) [Compound 120]
  inhibition at 0.1 µM: 11 to 30%

## C#Cc1c(F)ccc2cc(O)cc(-c3ncc4c(N5CC6CCC(C5)N6)nc(OCC5(CN6CCC(CN7CCC(c8cccc(N9CCC(=O)NC9=O)c8C)CC7)CC6)CC5)nc4c3F)c12 [Compound 8a]
  inhibition at 0.001 µM: 11 to 30%

## C#Cc1c(F)ccc2cc(O)cc(-c3ncc4c(N5CC6CCC(C5)N6)nc(OCC5(CN6CCC(CN7CCC(c8cccc(N9CC(=O)NC9=O)c8)CC7)CC6)CC5)nc4c3F)c12 [Compound 7a]
  inhibition at 0.001 µM: 11 to 30%

## C#Cc1c(F)ccc2cc(O)cc(-c3ncc4c(N5CC6CCC(C5)N6)nc(OCC5(CN6CCC7(CC6)CC(N6CCC(c8ccc(CN9CCC(=O)NC9=O)cc8)CC6)C7)CC5)nc4c3F)c12 [Compound 38a]
  inhibition at 0.005 µM: 11 to 30%

## Nc1cc(Cl)c(C(F)(F)F)c(-c2ncc3c(N4CC5CCC(C4)N5)nc(OCC4(CN5CCC6(CC5)CC(N5CCC(c7cccc(N8CCC(=O)NC8=O)c7)CC5)C6)CC4)nc3c2F)c1 [Compound 19a]
  inhibition at 0.005 µM: 11 to 30%
  inhibition at 0.05 µM: 11 to 30%

## C#Cc1c(F)ccc2cc(O)cc(-c3ncc4c(N5CC6CCC(C5)N6)nc(OCCCN5CCN(C(=O)CN6CCC(c7ccc8c(C9CCC(=O)NC9=O)nn(C)c8c7)CC6)CC5)nc4c3F)c12 (stereo not drawn) [Compound 33]
  DC50: 11 to 50 nM

## C#Cc1c(F)ccc2cc(O)cc(-c3ncc4c(N5CC6CCC(C5)N6)nc(OCCCN5CCC(C(=O)N6CCN(C(=O)C[C@H](NC(=O)[C@@H]7C[C@@H](O)CN7C(=O)[C@@H](NC(=O)C7(F)CC7)C(C)(C)C)c7ccc(-c8scnc8C)cc7)CC6)CC5)nc4c3F)c12 [Compound 65]
  inhibition at 1 µM: 11 to 30%

## Cc1ccc2[nH]ncc2c1-c1ncc2c(N3CC4CCC(C3)N4)nc(OCC3(CN4CCC5(CC4)CC(N4CCC(c6ccc7c8c(cccc68)C(=O)N7C6CCC(=O)NC6=O)CC4)C5)CC3)nc2c1F (stereo not drawn) [Compound 18a]
  inhibition at 0.005 µM: 11 to 30%

## C#Cc1c(F)ccc2cc(O)cc(-c3ncc4c(N5CC6CCC(C5)N6)nc(OCC5CCN(CCCCCCCCCCC(=O)N[C@H](C(=O)N6C[C@H](O)C[C@H]6C(=O)N[C@@H](C)c6ccc(-c7scnc7C)cc6)C(C)(C)C)C5)nc4c3F)c12 (stereo partly drawn) [Compound 56]
  DC50: 11 to 50 nM

## C#Cc1c(F)ccc2cc(O)cc(-c3ncc4c(N5CC6CCC(C5)N6)nc(OCC5(CN6CCC7(CC6)CC(c6cc8c(cc6F)c(N6CCC(=O)NC6=O)nn8C)C7)CC5)nc4c3F)c12 [Compound 39a]
  inhibition at 0.005 µM: > 60%
  DC50: < 10 nM

## C#Cc1c(F)ccc2cc(O)cc(-c3ncc4c(N5CC6CCC(C5)N6)nc(OCC5(CN6CCC(C(=O)N7CCC(c8ccc9c(C%10CCC(=O)NC%10=O)nn(C)c9c8)CC7)CC6)CC5)nc4c3F)c12 (stereo not drawn) [Compound 100]
  inhibition at 0.1 µM: > 60%

## C#Cc1c(F)ccc2cc(O)cc(-c3ncc4c(N5CC6CCC(C5)N6)nc(OC5CCN(CC6CCN(C(=O)C[C@H](NC(=O)[C@@H]7C[C@@H](O)CN7C(=O)[C@@H](NC(=O)C7(F)CC7)C(C)(C)C)c7ccc(-c8scnc8C)cc7)CC6)CC5)nc4c3F)c12 [Compound 70]
  inhibition at 0.1 µM: 11 to 30%
  inhibition at 1 µM: > 60%

## C#Cc1c(F)ccc2cc(O)cc(-c3ncc4c(N5CC6CCC(C5)N6)nc(OC5CCN(CCCCCCCCCCC(=O)N[C@H](C(=O)N6C[C@H](O)C[C@H]6C(=O)N[C@@H](C)c6ccc(-c7scnc7C)cc6)C(C)(C)C)CC5)nc4c3F)c12 [Compound 45]
  DC50: 11 to 50 nM

## C#Cc1c(F)ccc2cc(O)cc(-c3ncc4c(N5CC6CCC(C5)N6)nc(OCC5(CN6CCC7(CC6)CC(N6CCC(c8cc9c(cc8F)c(C8CCC(=O)NC8=O)nn9C)CC6)C7)CC5)nc4c3F)c12 (stereo not drawn) [Compound 41a]
  inhibition at 0.005 µM: > 60%
  inhibition at 0.05 µM: > 60%

## C#Cc1c(F)ccc2cc(O)cc(-c3ncc4c(N5CC6CCC(C5)N6)nc(OCC5(CN6CCC(N7CC(C(=O)N8CCC(c9ccc%10c(C%11CCC(=O)NC%11=O)nn(C)c%10c9)CC8)C7)CC6)CC5)nc4c3F)c12 (stereo not drawn) [Compound 35a]
  inhibition at 0.005 µM: 31 to 60%
  inhibition at 0.05 µM: > 60%

## C#Cc1c(F)ccc2cc(O)cc(-c3ncc4c(N5CC6CCC(C5)N6)nc(OCC5(CN6CCC(N7CC(N8CCC(c9ccc%10c(C%11CCC(=O)NC%11=O)nn(C)c%10c9)CC8)C7)CC6)CC5)nc4c3F)c12 (stereo not drawn) [Compound 34a]
  inhibition at 0.005 µM: 31 to 60%
  inhibition at 0.05 µM: > 60%

## C#Cc1c(F)ccc2cc(O)cc(-c3ncc4c(N5CC6CCC(C5)N6)nc(OC5CCN(CC(=O)N6CCC(c7ccc8c(C9CCC(=O)NC9=O)nn(C)c8c7)CC6)CC5)nc4c3F)c12 (stereo not drawn) [Compound 69]
  inhibition at 0.1 µM: > 60%
  inhibition at 1 µM: > 60%

## C#Cc1c(F)ccc2cc(O)cc(-c3ncc4c(N5CC6CCC(C5)N6)nc(OCC5(CN6CCC7(CC6)CC(N6CCC(c8ccc(NC9%10CC(C9)C(=O)NC%10=O)cc8F)CC6)C7)CC5)nc4c3F)c12 [Compound 36a]
  inhibition at 0.005 µM: > 60%
  inhibition at 0.05 µM: > 60%
  DC50: < 10 nM

## C#Cc1c(F)ccc2cc(O)cc(-c3ncc4c(N5CC6CCC(C5)N6)nc(OC5CCN(CC(=O)N6CCC7(CC6)CC(N6CCC(c8ccc9c(C%10CCC(=O)NC%10=O)nn(C)c9c8)CC6)C7)C5)nc4c3F)c12 (stereo not drawn) [Compound 101]
  inhibition at 0.1 µM: 11 to 30%

## C#Cc1c(F)ccc2cc(O)cc(-c3ncc4c(N5CC6CCC(C5)N6)nc(OCC5(CN6CCC(c7ccc8c(C9CCC(=O)NC9=O)nn(C)c8c7)CC6)CC5)nc4c3F)c12 (stereo not drawn) [Compound 99]
  inhibition at 0.1 µM: > 60%

## C#Cc1c(F)ccc2cc(O)cc(-c3ncc4c(N5CC6CCC(C5)N6)nc(OC5CCN(CCCCCCCCCCC(=O)N[C@H](C(=O)N6C[C@H](O)C[C@H]6C(=O)N[C@@H](C)c6ccc(-c7scnc7C)cc6)C(C)(C)C)C5)nc4c3F)c12 (stereo partly drawn) [Compound 55]
  DC50: 51 to 100 nM

## C#Cc1c(F)ccc2cc(O)cc(-c3ncc4c(N5CC6CCC(C5)N6)nc(OCCCN5CCN(CCC(=O)N6CCC(c7ccc8c(C9CCC(=O)NC9=O)nn(C)c8c7)CC6)CC5)nc4c3F)c12 (stereo not drawn) [Compound 74]
  inhibition at 0.1 µM: 31 to 60%

## C#Cc1c(F)ccc2cc(O)cc(-c3ncc4c(N5CC6CCC(C5)N6)nc(OCC5(CN6CC7(CC(C(=O)N8CCC(c9ccc%10c(C%11CCC(=O)NC%11=O)nn(C)c%10c9)CC8)C7)C6)CC5)nc4c3F)c12 (stereo not drawn) [Compound 27a]
  inhibition at 0.005 µM: 11 to 30%
  inhibition at 0.05 µM: 11 to 30%

## C#Cc1c(F)ccc2cc(O)cc(-c3ncc4c(N5CC6CCC(C5)N6)nc(OC5CCN(CCCCCCCCCCC(=O)N[C@H](C(=O)N6C[C@H](O)C[C@H]6C(=O)NCc6ccc(-c7scnc7C)cc6)C(C)(C)C)CC5)nc4c3F)c12 [Compound 43]
  DC50: 51 to 100 nM

## C#Cc1c(F)ccc2cc(O)cc(-c3ncc4c(N5CC6CCC(C5)N6)nc(OCC5CCN(CCCCCCCCCCC(=O)N6CCC(c7ccc8c(C9CCC(=O)NC9=O)nn(C)c8c7)CC6)C5)nc4c3F)c12 (stereo not drawn) [Compound 57]
  DC50: < 10 nM

## C#Cc1c(F)ccc2cccc(-c3ncc4c(N5CC6CCC(C5)N6)nc(OCC5(CN6CCC7(CC6)CC(N6CCC(c8ccc(NC9CCC(=O)NC9=O)cc8F)CC6)C7)CC5)nc4c3F)c12 (stereo not drawn) [Compound 22a]
  inhibition at 0.005 µM: 11 to 30%
  inhibition at 0.05 µM: 31 to 60%
